Assay results as given in PubChem BioAssay AID652232 (The Scripps Research Institute Molecular Screening Center, 2013).
Calls of active or inactive are those of the source.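 The calls were made as follows: active = blocks protein phosphatase 1 activity with an IC50 half-maximal inhibitory concentration below 10 µM; inactive = IC50 of 10 µM or higher.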

Target: Serine/threonine-protein phosphatase PP1-alpha catalytic subunit (Homo sapiens) (UniProt P62136)
Assay: PP1alpha inhibitors on histone substrate, IC50 – biochemical, radiolabel, dose response, powder samples, late-stage follow-up (AID 652232)
Conditions: purified PP1alpha, 33P-phosphohistone dephosphorylation, scintillation

Serine/threonine-protein phosphatase PP1-alpha catalytic subunit (Homo sapiens), sequence (P62136 whole entry, looked up): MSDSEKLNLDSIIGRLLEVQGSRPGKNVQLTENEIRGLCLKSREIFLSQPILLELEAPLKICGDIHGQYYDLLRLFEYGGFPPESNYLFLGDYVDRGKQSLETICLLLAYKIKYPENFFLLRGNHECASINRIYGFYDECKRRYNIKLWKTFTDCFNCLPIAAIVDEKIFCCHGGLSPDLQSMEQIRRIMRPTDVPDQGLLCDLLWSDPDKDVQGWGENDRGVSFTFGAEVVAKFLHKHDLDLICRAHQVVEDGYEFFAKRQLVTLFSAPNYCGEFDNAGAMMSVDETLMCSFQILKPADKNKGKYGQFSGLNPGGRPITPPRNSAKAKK

Row | IC50 | SMILES
1 | 27 µM | Oc1c(C(c2ccccn2)N2CCC(Cc3ccccc3)CC2)cc(Cl)c2cccnc12 (centres undefined)
2 | 44.2 µM | CC(C)(C)OC(=O)N1CCN(C(c2ccccn2)c2cc(Cl)c3cccnc3c2O)CC1 (centres undefined)
3 | inactive | Oc1c(C(c2ccccn2)N2CCN(c3ccccc3F)CC2)cc(Cl)c2cccnc12 (centres undefined)
4 | inactive | CC1CCN(C(c2ccccn2)c2cc(Cl)c3cccnc3c2O)CC1 (centres undefined)
